Measurements taken from PMC4850288, “Crystal Structure and Activity Studies of the C11 Cysteine Peptidase from Parabacteroides merdae in the Human Gut Microbiome” (The Journal of Biological Chemistry, 2016).
Where a chain is given by its changes, count along the chain named.

Tests used:
PmC11 [1] = target: T1, PmC11 (Parabacteroides merdae, UniProt A0ABF7PHE6); assay: fluorogenic AMC release, Lineweaver-Burk; format: biochemical; details: pH 8.0, 20 mM Tris, 150 mM NaCl, 37 °C; enzyme preincubated 16 h at 37 °C; 0-600 μM substrate
T1 construct: gene PARMER_00083; signal peptide Met1-Asn22 deleted (for structure); N-terminal tag MGSDKIHHHHHHENLYFQ/G, kept in assays; E. coli BL21 Star (DE3); monomer
T1 sequence (A0ABF7PHE6 23-147): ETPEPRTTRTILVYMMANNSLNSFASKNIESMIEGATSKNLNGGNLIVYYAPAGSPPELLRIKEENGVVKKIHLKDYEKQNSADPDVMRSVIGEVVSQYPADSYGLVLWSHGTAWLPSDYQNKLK
T1 sequence (A0ABF7PHE6 148-375): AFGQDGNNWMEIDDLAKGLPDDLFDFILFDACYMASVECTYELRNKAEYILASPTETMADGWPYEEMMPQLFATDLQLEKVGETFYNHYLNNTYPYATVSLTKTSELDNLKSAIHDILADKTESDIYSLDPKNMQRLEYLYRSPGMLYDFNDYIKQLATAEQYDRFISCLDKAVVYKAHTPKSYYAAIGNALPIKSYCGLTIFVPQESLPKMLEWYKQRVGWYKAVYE
Method: (§1) fluorogenic AMC release, Lineweaver-Burk on PmC11 | Km and Vmax of PmC11 and K147A mutant were determined by monitoring change in the fluorescence

PmC11 [2] = target: T2, PmC11 (Parabacteroides merdae, UniProt A0ABF7PHE6, K147A, form not given); assay: fluorogenic AMC release, Lineweaver-Burk; format: biochemical; details: pH 8.0, 20 mM Tris, 150 mM NaCl, 37 °C; enzyme preincubated 16 h at 37 °C; 0-600 μM substrate; unprocessed cleavage-site mutant
T2 construct: gene PARMER_00083; signal peptide Met1-Asn22 deleted (for structure); N-terminal tag MGSDKIHHHHHHENLYFQ/G, kept in assays; E. coli BL21 Star (DE3); monomer
T2 sequence (A0ABF7PHE6 23-147 K147A): T1 sequence (A0ABF7PHE6 23-147) with K125A
T2 sequence (A0ABF7PHE6 148-375): T1 sequence (A0ABF7PHE6 148-375)
Method: as §1

With `Cc1cc(=O)oc2cc(NC(=O)[C@H](CCCNC(=N)N)NC(=O)c3ccccc3)ccc12` [Bz-R-AMC, benzoyl-L-Arg-4-methylcoumaryl-7-amide] the Km (PmC11 [1]) was 274 ± 6 µM and the Km (PmC11 [2]) was 301 ± 239 µM.
